Measured values reported in EP0100051A1, “New derivatives of 1-alkylamine-(4(p-alkyloxy-benzamide)phenoxy)-2-propanol, having beta-sympatholytic activity, their salts, and production processes thereof” (A. Menarini S.a.S., priority 1982, dated 1984).

How the values were obtained:
[1] = system: β -chronotropic effects (cardiac frequency increase), β .-inotropic effects (systolic ejection velocity increase), and ,β2 effects (diastolic pressure lowering); assay: antagonism of the effects of isoprenaline in the anaesthetized and reserpenized rat after oral administration (in vivo); details: for inherent sympathicomimetic activity: cardiac frequency in the reserpenized animal at rest; for cardioselectivity: from the in vivo and in vitro results, β1 versus β2 effects of isoprenaline; for power gap between vivo and vitro: in vivo activity relative to in vitro activity
[2] = system: β chronotropic effects (cavy right atrium), β1 inotropic effects (cavy ventricle) and 2 effects (cavy trachea) of the isoprenaline; assay: antagonism of the effects of isoprenaline on isolated tissues (in vitro); details: compared with the compounds of the invention
Excerpt: The beta-sympatholytic activity of the compounds under examination has been tested in vivo as antagonist to the β -chronotropic effects (cardiac frequency increase), β .-inotropic effects (systolic ejection velocity increase), and ,β2 effects (diastolic pressure lowering) of the isoprenaline upon the anaesthetized and reserpenized rat, after oral administration, and in vitro as antagonist to the β chronotropic effects (cavy right atrium), β1 inotropic effects (cavy ventricle) and 2 effects (cavy trachea) of the isoprenaline.

| SMILES | inherent sympathicomimetic activity [1] | cardioselectivity [1] | power gap between vivo and vitro [1] | beta-sympatholytic activity in vitro [2] |
| --- | --- | --- | --- | --- |
| CC(C)NCC(O)COc1ccc(NC(=O)c2ccc(Cl)cc2)cc1 (centres unmarked) [1 [4(-p--chlorobenzamide)phenoxy] -3-isopropylamine-2-propanol] | also present | also present | lack of a significant power gap between vivo and vitro |  |
| CC(C)NCC(O)COc1ccc(NC(=O)c2ccccc2)cc1 (centres unmarked) [1-(4-benzamidephenoxy)-3-isopropylamine-2-propanol] | also present | also present | lack of a significant power gap between vivo and vitro |  |
| CC(=O)Nc1ccc(OCC(O)CNC(C)C)cc1 (centres unmarked) [practolol] | also present | also present | lack of a significant power gap between vivo and vitro |  |
| CC(C)NCC(O)COc1cccc2ccccc12 (centres unmarked) [propranolol] |  |  | relevant decrease of the in vivo activity | more active in vitro |
